Reference: US5621133A (priority 1995, dated 1997)
Counter-ions that a name gives are not always drawn.

Columns and labels:
rats = details: cited from earlier work
[1] = test system: striatal dopamine receptors; test: Rotation behavior assay of in vivo activity (6-hydroxydopamine lesioned rat rotational model); details: for ED50 s.c. (rotation behavior): injected subcutaneously
anesthetized dogs = test: Cardiovascular pharmacology - hemodynamic studies in anesthetized dogs; format: in vivo, dog (Beagle); details: cumulative intraaortic infusion above renal arteries; dose ranges (g/kg/min): 2A 3-10, 3 1-10, 35 1-3, 36 1-10, 37 1-30
Protocol: Male Beagle dogs were anesthetized with pentobarbital (30 mg/kg. i.v.) and maintained with i.v. infusion (Abbott/Shaw Life Care Pump, Model II/D) to maintain stable cardiovascular function. The dogs were […] with a cuffed endotracheal tube and ventilated with room air by means of a positive pressure respiratory pump. Expired respiratory CO2 was monitored with a Beckman LB-2 gas analyzer and maintained at 5% by appropriate pump adjustments. The dogs were maintained at a body temperature of 37.5°±1.0° C. with a thermostatically controlled animal table. Polyethylene catheters were placed in the abdominal aorta via the femoral and carotid arteries for blood pressure and left ventricular pressure recordings. A Swan-Ganz thermodilution catheter with a 15 cm proximal port was placed in the jugular vein for central venous and pulmonary arterial recordings and for determination of cardiac output (American Edwards Cardiac Output Computer, Model COM-1). Heart rate and electrocardiogram (ECG) recordings were made from a Lead II ECG connection. […] A calibrated electromagnetic flow probe (Carolina Medical Electronics) was positioned around the renal artery. The abdominal cavity is closed with wound clips. Recordings were made on a Grass polygraph. An additional small polyethylene catheter was inserted into a branch of the left femoral artery and the tip positioned in the aorta above the renal arteries. […] A thirty-fold dose-response-curve was administered by varying flow rate from 0.01 to 0.30 mL/minute.

Parkinson's Disease = details: cited from earlier work
dopamine D-1 receptor [2] = details: for Intrinsic Activity (adenylate cyclase assay): dopamine = 100, goldfish retina or rat striatum; for EC50: read-out: EC50 (agonist activity in adenylate cyclase assay), tissue from goldfish retina or rat striatum
Protocol: In order to determine agonist activity, cell-free tissue homogenates are incubated in an ionic buffer solution containing ATP and the compound being evaluated. The tissue was obtained from either goldfish retina or rat striatum.

[3] = test system: spontaneously hypertensive rats; test: Diuretic effects in spontaneously hypertensive rats; format: in vivo, rat; details: 3.0 mg/kg i.v., 2 hour interval
Protocol: Male, spontaneously hypertensive rats (SHR), weighing 285-350 grams were used to evaluate the diuretic effects of one of the compounds of the invention. Following an overnight fasting period with free access to drinking water, the rats received an intragastric fluid load of 0.9 saline at 5% of their body weight. Simultaneously with the load, the rats were dosed with a test compound or vehicle and placed individually in stainless steel metabolic cages where they had access to drinking water throughout the duration of the experiment. For intravenous administration, the rats were instrumented with indwelling cannulas placed into the jugular vein at least one week prior to the experiment.
Urine was collected at 2 and 4 hours following drug administration. The volume of excreted urine at each collection interval was measured accurately and the samples were analyzed for sodium, potassium and chloride ions. Sodium and potassium were measured using a Digital Readout Flame Photometer (Instrumentation Labs). Chloride was measured by the method of Shales and Shales, J Biol Chem 140:879 (1941). The statistical analysis of the data was computed by an off-line computer program. In this program, a comparison test is made between the vehicle (control) group and each treatment group for all variables at each time interval of the experiment. The test of statistical significance is based on the Student's t-test, where the calculated t is a measure of the probability density function.
A control group of six rats received 0.1 mg/kg of saline solution acidified by ascorbic acid (0.3 mL). This solution was also the vehicle for the test compound.

dopamine D-2 receptor = dopamine D-2 receptor (Rattus norvegicus, UniProt P61169); test: biochemical; format: binding; details: rat caudate, [125I]-p-aminophenylethyl spiroperidol; read-out: D-2 Ki
Sequence of dopamine D-2 receptor (P61169 whole entry): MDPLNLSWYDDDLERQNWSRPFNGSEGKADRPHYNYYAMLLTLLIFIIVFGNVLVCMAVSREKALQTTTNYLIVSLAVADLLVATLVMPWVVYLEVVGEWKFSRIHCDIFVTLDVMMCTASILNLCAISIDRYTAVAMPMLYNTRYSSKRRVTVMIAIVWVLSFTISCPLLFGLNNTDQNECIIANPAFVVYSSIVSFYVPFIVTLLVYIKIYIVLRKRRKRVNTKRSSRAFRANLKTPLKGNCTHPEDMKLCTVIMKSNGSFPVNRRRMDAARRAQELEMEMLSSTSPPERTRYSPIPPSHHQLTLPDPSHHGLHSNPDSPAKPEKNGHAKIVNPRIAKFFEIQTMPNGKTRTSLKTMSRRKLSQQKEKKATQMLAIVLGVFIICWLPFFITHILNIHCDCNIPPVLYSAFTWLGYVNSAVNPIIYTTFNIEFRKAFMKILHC
Protocol: Homogenized rat caudate was the source of the D-2 receptors. […] The molar affinity of the compound for the receptor binding site was calculated by the same method used for the D-1 receptor assay, assuming a competitive interaction between the compound and the radiolabeled ligand.

dopamine D-1 receptor [4] = molecular target: dopamine D-1 receptor (Rattus norvegicus, UniProt P18901); test: biochemical; details: D-1 Ki, rat caudate, [125I]SCH-23982
Sequence of dopamine D-1 receptor (Rattus norvegicus, UniProt P18901) (P18901 whole entry): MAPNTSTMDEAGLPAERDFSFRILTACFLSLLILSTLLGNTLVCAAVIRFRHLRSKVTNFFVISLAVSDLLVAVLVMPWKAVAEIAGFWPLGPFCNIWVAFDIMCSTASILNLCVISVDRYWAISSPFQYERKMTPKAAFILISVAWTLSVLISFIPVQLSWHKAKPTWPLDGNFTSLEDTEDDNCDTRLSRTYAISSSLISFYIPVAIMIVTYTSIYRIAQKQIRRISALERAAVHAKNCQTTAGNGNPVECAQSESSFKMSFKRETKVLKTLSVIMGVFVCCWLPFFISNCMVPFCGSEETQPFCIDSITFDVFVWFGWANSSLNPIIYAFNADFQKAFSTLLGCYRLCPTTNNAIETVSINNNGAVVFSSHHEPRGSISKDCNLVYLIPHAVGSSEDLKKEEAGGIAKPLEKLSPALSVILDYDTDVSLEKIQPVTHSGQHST
Source text: The compounds compete with the radiolabeled ligand for occupancy of the receptors and the molar potency of each compound was quantified.
The Ki values are inversely proportional to the affinity of the compound for the receptor.

| SMILES | Max Decrease MAP (mean arterial blood pressure) (anesthetized dogs) [%] | Max Increase RBF (renal blood flow) (anesthetized dogs) [%] | Intrinsic Activity (adenylate cyclase assay) (dopamine D-1 receptor [2]) | Ki (dopamine D-2 receptor) [nM] | EC50 (dopamine D-1 receptor [2]) [nM] | Ki (dopamine D-1 receptor [4]) [nM] | further results |
| --- | --- | --- | --- | --- | --- | --- | --- |
| Oc1cc2c(cc1O)C(c1ccccc1)CNCC2 (stereo not shown) [SKF 38393] |  |  |  |  |  |  | food intake (rats): decrease food intake |
| CC(=O)Oc1ccc2c(c1OC(C)=O)CC(c1ccccc1)C=C2CN.Cl (stereo not shown) [Example 3, 5,6-Bis(acetoxy)-1-aminomethyl-3-phenyl-3,4-dihydronaphthalene Hydrochloride] | 8 | 83 |  |  |  |  | ED50 s.c. (rotation behavior) [1]: 0.91 µmol/kg |
| CC(C)C[C@H]1C(=O)N2CCC[C@H]2[C@]2(O)O[C@](NC(=O)[C@@H]3C=C4c5cccc6[nH]c(Br)c(c56)C[C@H]4N(C)C3)(C(C)C)C(=O)N12 [bromocryptine] |  |  |  |  |  |  | effect on L-DOPA requirement (Parkinson's Disease): lowers the amount of L-DOPA required to achieve the maximal therapeutic response |
| Br.NCC1=CC(c2ccccc2)Cc2c1ccc(O)c2O (stereo not shown) [Example 2A, 1-Aminomethyl-5,6-dihydroxy-3-phenyl-3,4-dihydronaphthalene Hydrobromide] | 32 | 27 | 56 | > 10000 |  |  | Urine potassium ([3]; control 0.29, n = 6): 0.55 meq/kg; Urine sodium ([3]; control 1.60, n = 6): 2.35 meq/kg; Urine chloride ([3]; control 1.87, n = 6): 2.71 meq/kg; Urine volume ([3]; control 13.02, n = 6): 22.57 mL/kg |
| Br.NCC1=CC(C2CCCCC2)Cc2c1ccc(O)c2O (stereo not shown) [Example 36, 1-Aminomethyl-3-cyclohexyl-5,6-dihydroxy-3,4-dihydronaphthalene Hydrobromide] | 13 | 94 | 57 | > 10000 | 79 | 200 | ED50 s.c. (rotation behavior) [1]: 0.5 µmol/kg; ED50 oral (rotation behavior) [1]: 170 µmol/kg |
| Br.NC[C@@H]1C[C@H](C2CCCCC2)Cc2c1ccc(O)c2O [Example 37, [1R,3S]1-Aminomethyl-3-cyclohexyl-5,6-dihydroxy-1,2,3,4-tetrahydronaphthalene Hydrobromide] | 39 | 48 | 56 | 10000 | 31 | 57 |  |
| NC[C@H]1C[C@@H](c2ccccc2)Cc2c1ccc(O)c2O (relative stereo) [Example 35, [1,3-cis]1-Aminomethyl-5,6-dihydroxy-3-phenyl-1,2,3,4-tetrahydronaphthalene Hydrobromide] | 26 | 35 | 66 | 760 | 10 | 30 | ED50 oral (rotation behavior) [1]: 21.4 µmol/kg |
